Test results from ChEMBL document CHEMBL1201862, “PubChem BioAssay data set” (2004).
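Grown in 96-well plates, cells were treated for 48 hours with each compound at five concentrations. Insufficient inhibition: endpoint recorded as highest concentration tested. GI50 = concentration required for 50% inhibition of growth.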 The source made the active and inactive calls. No stated cut-off is given here; in the data, active = GI50 up to about 1.1 µM and inactive = higher.

What was measured:
Assay in all cases: NCI-60 cell line screen, 48 h
ACHN = system: ACHN
HCC 2998 = system: HCC 2998
HOP-62 = system: HOP-62
HT-29 = system: HT-29
NCI-H226 = system: NCI-H226
NCI-H23 = system: NCI-H23
NCI-H522 = system: NCI-H522
RXF 393 = system: RXF 393
SF-295 = system: SF-295
SF-539 = system: SF-539
SK-MEL-28 = system: SK-MEL-28
SK-MEL-2 = system: SK-MEL-2
SN12C = system: SN12C
SNB-19 = system: SNB-19
TK-10 = system: TK-10
U-251 = system: U-251
UACC-62 = system: UACC-62
UO-31 = system: UO-31

Measured: GI50

CC1=NN(c2ccccc2)C(=O)C1=C1SCCS1
inactive: ACHN 97.1 µM | HCC 2998 > 87.1 µM | HOP-62 > 100 µM | HT-29 > 74.5 µM | NCI-H226 > 64 µM | NCI-H23 > 100 µM | NCI-H522 43 µM | RXF 393 37 µM | SF-295 > 71.8 µM | SF-539 > 100 µM | SK-MEL-28 > 100 µM | SK-MEL-2 > 100 µM | SN12C > 83 µM | SNB-19 > 86.7 µM | TK-10 > 55.1 µM | U-251 > 53.2 µM | UACC-62 > 62.2 µM | UO-31 37.9 µM

CCOP(=O)(OCC)C(C(=O)OC)C(=O)C(=O)Nc1c(C)cc(Br)cc1C (stereo not drawn)
inactive: ACHN > 100 µM | HCC 2998 > 100 µM | HOP-62 > 100 µM | HT-29 > 100 µM | NCI-H226 > 100 µM | NCI-H23 > 100 µM | NCI-H522 > 100 µM | RXF 393 > 100 µM | SF-539 > 100 µM | SK-MEL-28 > 100 µM | SK-MEL-2 > 100 µM | SN12C > 100 µM | SNB-19 > 100 µM | TK-10 > 100 µM | U-251 > 100 µM | UACC-62 > 100 µM | UO-31 > 100 µM

CCC1CN2CCc3c([nH]c4ccccc34)C2C[C@@H]1CC(=O)N(C)C (stereo partly drawn)
inactive: ACHN > 100 µM | HCC 2998 > 100 µM | HOP-62 > 100 µM | HT-29 > 100 µM | NCI-H226 > 100 µM | NCI-H23 > 100 µM | NCI-H522 > 100 µM | RXF 393 > 100 µM | SF-295 > 100 µM | SF-539 > 100 µM | SK-MEL-28 > 100 µM | SK-MEL-2 > 100 µM | SN12C > 100 µM | SNB-19 > 100 µM | TK-10 > 100 µM | U-251 > 100 µM | UO-31 > 100 µM

COCCOCOC(CCCCO)c1cc(C)c(O[Si](C)(C)C(C)(C)C)c(C)c1 (stereo not drawn)
inactive: ACHN 7.62 µM | HCC 2998 7.03 µM | HOP-62 10.8 µM | NCI-H226 2.41 µM | NCI-H23 5.55 µM | NCI-H522 1.64 µM | RXF 393 2.26 µM | SF-295 3.97 µM | SF-539 12.4 µM | SK-MEL-28 12.3 µM | SK-MEL-2 8.89 µM | SN12C 2.69 µM | SNB-19 6.35 µM | TK-10 13.4 µM | U-251 10.8 µM | UACC-62 12.2 µM | UO-31 4.11 µM

O=C(Cc1ccccc1)N/N=C(\C1=Nc2ccc([N+](=O)[O-])cc2NC1O)C(O)c1ccc([N+](=O)[O-])cc1 (stereo not drawn)
inactive: ACHN 78 µM | HCC 2998 99.5 µM | HOP-62 > 100 µM | HT-29 > 100 µM | NCI-H226 > 100 µM | NCI-H23 > 100 µM | NCI-H522 7.89 µM | RXF 393 > 100 µM | SF-295 53.1 µM | SF-539 > 100 µM | SK-MEL-2 > 100 µM | SN12C > 100 µM | SNB-19 > 100 µM | TK-10 > 100 µM | U-251 > 100 µM | UACC-62 54 µM | UO-31 52.8 µM

O=C(O)CNS(=O)(=O)c1ccc(NCc2ccccc2)cc1
inactive: ACHN > 100 µM | HCC 2998 > 100 µM | HOP-62 > 100 µM | HT-29 > 100 µM | NCI-H226 > 100 µM | NCI-H23 > 100 µM | NCI-H522 > 100 µM | RXF 393 > 100 µM | SF-539 > 100 µM | SK-MEL-28 > 100 µM | SK-MEL-2 > 100 µM | SN12C > 100 µM | SNB-19 > 100 µM | TK-10 > 100 µM | U-251 > 100 µM | UACC-62 > 100 µM | UO-31 > 100 µM
